Test results reported in the supplement of paper PMC13380429.
± gives the standard deviation of the averaged measurements.

Experiments:
Details in all cases: 72 h
Calu-3 [1] = test: cell viability relative to DMSO; higher = less toxic
Vero E6 [2] = test: as above
HepG2 [3] = test: as above
Caco-2 [4] = test: as above
U2OS [5] = test: as above
Calu-3 [6] = test: drug sensitivity score (DSS) for viability; higher = more toxic; extreme values may be limits of the assay
Vero E6 [7] = test: as above
HepG2 [8] = test: as above
Caco-2 [9] = test: as above
U2OS [10] = test: as above
Calu-3 [11] = test: relative viability EC50 (midpoint between 100% and the lowest measured viability); higher = less toxic
Vero E6 [12] = test: as above
HepG2 [13] = test: as above
Caco-2 [14] = test: as above
U2OS [15] = test: as above

SMILES | cell viability (Calu-3 [1]; 1 nM) [%] | cell viability (Calu-3 [1]; 10 nM) [%] | cell viability (Calu-3 [1]; 100 nM) [%] | cell viability (Calu-3 [1]; 1000 nM) [%] | cell viability (Calu-3 [1]; 10000 nM) [%] | cell viability (Vero E6 [2]; 1 nM) [%] | cell viability (Vero E6 [2]; 10 nM) [%] | cell viability (Vero E6 [2]; 100 nM) [%] | cell viability (Vero E6 [2]; 1000 nM) [%] | cell viability (Vero E6 [2]; 10000 nM) [%] | cell viability (HepG2 [3]; 1 nM) [%] | cell viability (HepG2 [3]; 10 nM) [%] | cell viability (HepG2 [3]; 100 nM) [%] | cell viability (HepG2 [3]; 1000 nM) [%] | cell viability (HepG2 [3]; 10000 nM) [%] | cell viability (Caco-2 [4]; 1 nM) [%] | cell viability (Caco-2 [4]; 10 nM) [%] | cell viability (Caco-2 [4]; 100 nM) [%] | cell viability (Caco-2 [4]; 1000 nM) [%] | cell viability (Caco-2 [4]; 10000 nM) [%] | cell viability (U2OS [5]; 1 nM) [%] | cell viability (U2OS [5]; 10 nM) [%] | cell viability (U2OS [5]; 100 nM) [%] | cell viability (U2OS [5]; 1000 nM) [%] | cell viability (U2OS [5]; 10000 nM) [%] | drug sensitivity score (Calu-3 [6]) | drug sensitivity score (Vero E6 [7]) | drug sensitivity score (HepG2 [8]) | drug sensitivity score (Caco-2 [9]) | drug sensitivity score (U2OS [10]) | relative viability EC50 (Calu-3 [11]) [µM] | relative viability EC50 (Vero E6 [12]) [µM] | relative viability EC50 (HepG2 [13]) [µM] | relative viability EC50 (Caco-2 [14]) [µM] | relative viability EC50 (U2OS [15]) [µM]
COc1cc(N2CCC(N(C)C)CC2)ccc1Nc1ncc(Cl)c(Nc2ccccc2P(C)(C)=O)n1 | 97.9 | 97.2 | 93.8 | 51.7 | 5.6 | 101 | 105 | 103 | 100 | 25.6 | 105 | 107 | 92.9 | 61.3 | 14.4 | 93.9 | 95.2 | 94.8 | 79.4 | 41.9 | 98.2 | 100 | 102 | 83.4 | 0.5 | 10.9 | 4.1 | 9.2 | 5.6 | 8.2 | 0.943 | 3.17 | 1.11 | 1.37 | 1.9
CC(C)(C)c1cc(C(C)(C)C)c2c(c1)C(O)(C(F)(F)F)C(=O)O2 (racemic) [rac-BHFF] | 95.9 | 93.4 | 94.8 | 93.2 | 106 | 99 | 103 | 99.3 | 103 | 99 | 92.4 | 105 | 98.2 | 104 | 91.8 | 94.3 | 91.8 | 87.4 | 93 | 94.6 | 100 | 96.8 | 103 | 99.1 | 108 | 0 | 0 | 0 | 0 | 0 | > 10 | > 10 | > 10 | > 10 | > 10
CCc1cccc(CC)c1NC(=O)CN(CC(=O)O)CC(=O)O [etifenin] | 94.6 | 104 | 105 | 90.5 | 90.6 | 106 | 93.7 | 106 | 97.4 | 95 | 104 | 84.1 | 106 | 95.9 | 113 | 83.1 | 104 | 95.7 | 124 | 93.3 | 87.1 | 97.2 | 90.1 | 103 | 106 | 0 | 0 | 0 | 0 | 0 | > 10 | > 10 | > 10 | > 10 | > 10
CN1C(=O)N(c2ccc(C#N)c(C(F)(F)F)c2)C(=O)[C@]1(CO)c1ccccc1 [GLPG0492-R-enantiomer] | 95.9 ± 3.8 | 109 ± 4.2 | 106 ± 3.9 | 105 ± 2.9 | 110 ± 15 | 96.6 ± 0.28 | 101 ± 2.3 | 96.7 ± 4.3 | 97 ± 0.99 | 94.3 ± 8.8 | 102 ± 8.3 | 103 ± 2.5 | 102.8 ± 0.78 | 100 ± 5.1 | 102 ± 3.8 | 96.1 ± 13 | 99.5 ± 4.8 | 94.4 ± 5.4 | 96 ± 7.1 | 93.7 ± 7.5 | 101 ± 4.5 | 104 ± 3.9 | 99 ± 1.3 | 101 ± 5.1 | 97.5 ± 4.2 | 0 | 0 | 0 | 0 | 0 | > 10 | > 10 | > 10 | > 10 | > 10
C[C@H](NCc1ccc(OCc2cccc(F)c2)cc1)C(N)=O [safinamide] | 95 | 101 | 92.2 | 102 | 108 | 101 | 89.8 | 99.5 | 97.2 | 100 | 98.1 | 92.5 | 98.4 | 93.4 | 96.6 | 97.9 | 97.4 | 101 | 102 | 100 | 94.2 | 102 | 99 | 105 | 108 | 0 | 0 | 0 | 0 | 0 | > 10 | > 10 | > 10 | > 10 | > 10
